Measured values published in patent US5686426A, “Dicarboxymethylated glycolipid derivatives as cell adhesion inhibitors” (Bristol-Myers Squibb Company, priority 1994, dated 1997).
pIC50: −log10 of the molar value.

Columns and labels:
[1] = tested on: HL-60 cells / activated platelets (P-selectin); test: HL-60 Platelet Cell Adhesion Assay; type: cell-based; conditions: HL-60 cell adhesion to thrombin-activated human platelets
Method: HL-60 cells, obtained from American Type Culture Collection, were cultured in RPMI 1640 medium (GIBCO) supplemented with 20% fetal calf serum (Sigma) and 50 μg/ml gentamicin (GIBCO). Cells in log phase growth were harvested, washed and resuspended in Tyrodes buffer containing 5 mM HEPES and 0.2% bovine serum albumin and were fixed with 1% buffered formalin.
Blood from normal human donors was anticoagulated with citrate, layered over 1-Step Platelets (Accurate Chemical Co.), and centrifuged at 350 g for 20 minutes at room temperature. The platelet band was collected, diluted in 2 volumes of Tyrode's Buffer with 5 mM HEPES, 10 mM EDTA, and 0.2% BSA (pH 7.4) (THEB) and centrifuged at 600 g for 10 minutes. The platelet pellet was resuspended in THEB and incubated at room temperature for 1 hour. Calcein-acetoxy methylester (Calcein-Am, Molecular Probes) was added to the platelets at a final concentration of 10 μM and incubated for 10 minutes at 37° C. to label the platelets. Without washing, the platelets were counted on a Coulter counter model ZM, and the concentration was adjusted to 1×10^7 /ml. The platelets were activated with 2 U/ml of human thrombin for 10 minutes in Tyrode's containing 2 mM CaCl2, 5 mM HEPES, and 0.2% BSA (pH 7.4) (THB) at 37° and immediately fixed with 1% buffered formalin for 1 to 2 hours at room temperature. A small aliquot of labeled platelets was removed before activation and designated as non-activated.
Both platelets and HL-60 were washed in a ≥5 fold excess volume of Hanks Balanced Salt Solution (HBSS), resuspended in THB and counted. Cell concentrations were adjusted to 2×10^7 /ml for platelets and 4×10^6 /ml for HL-60, this ratio determined to be optimum for platelet: HL-60 cell adhesion. Compounds were incubated with 50 μl of platelets for 30 minutes at room temperature before addition of 50 μl of HL-60. This ratio of 5:1 platelets to HL-60 was incubated for 30 minutes at room temperature before addition of 0.2 ml of THB to increase the volume so the samples could be analyzed on a FACScan cytometer (Becton Dickinson). Non-activated platelets, and activated platelets with 10 mM EDTA were included as controls. Data were collected within a region set for the forward scatter channel corresponding to HL-60 size events.
The percent HL-60 cells which contained bound platelets was determined for each test condition. The inhibition of binding was determined by comparison to standards which were treated with vehicle alone (representing 0% inhibition) and standards whose specific binding had been blocked by the use of EDTA (representing 100% inhibition), by the following formula: [formula] where x=HL-60 cells containing bound platelets in the presence of the compound;
b=HL-60 cells containing bound platelets in the presence of EDTA;
a=HL-60 cells containing bound platelets in presence of compound vehicle;
z=% inhibition of platelet: HL-60 cell adhesion

[2] = tested on: reverse passive Arthus reaction in rats; test: Reverse Passive Arthus Reaction in Rats (RPA); type: in vivo, Male Sprague Dawley rats; conditions: rat, single IV dose 3 mg, 4 hours
Description: The reverse passive Arthus reaction in rats is a modification of the method by Mulligan et al., as described in J. Clin. Invest., (1991) 88: 1396-1406. This is an experimental model in which the interaction of antigen-antibody complexes and complement leads to a severe vasculitis that is associated with edema, induration, erythema and hemorrhage. The interaction between the antigen-antibody complexes and complement leads to a localized influx of neutrophils. These neutrophils release a variety of mediators that are associated with tissue damage and vascular permeability. The localized inflammatory reaction is measured using different techniques i.e., vascular permeability and neutrophil influx which is evaluated both biochemically and microscopically.
Male Sprague Dawley specific pathogen-free rats with jugular vein cannulae (280-320 g, Hill Top Labs, Pa.) are used in these studies. Animals are acclimated for at least 1 day and individually housed in stainless steel cages. The dorsal region of the rats is closely clipped 2 days prior to the experiments and divided into 4 sites on each side of the midline. Prior to all injections the rats are sedated with 0.4 ml per 300 gm rat of ketamine/rompun [1000 mg (10 ml) of ketamine HCL is mixed with 40 mg (2.0 ml) Rompun] administered IP and or inhalation anesthesia with metafane (methoxyflurane).
Bovin Serum Albumin (BSA) and rabbit polyclonal IgG rich in anti-BSA are purchased from Sigma Chemical Co. (St. Louis, Mo.). Radiolabelled ^125 I-BSA (spAct 1-5 μCi/μg) is purchased from Dupont NEN (Boston, Mass.).
Each rat is administered intradermal (ID) injection of (0.4 mg, 0.6 mg and 0.8 mg) anti-BSA in a volume of 100 μl per injection in normal saline. The ID injections are randomized near the mid dorsal region on both sides of the back bone. Immediately after the ID injections of the anti-BSA, the rats are administered intravenous (IV) injections of BSA (10 mg in 1.0 ml) in normal saline containing ^125 I labeled BSA (1 μCi/ml BSA or 5.0 μCi/kg body wt) for quantification of dermal vascular injury. Anti-inflammatory agents such as inhibitors of adhesion molecules of the present invention are administered IV at a single dose of 3 mg immediately after BSA. Four (4) hours after the IV injection of BSA, the rats are anesthetized with metafane and 2 to 3 ml of blood is withdrawn via the cannula into an anticoagulant containing (EDTA or Heparin) tube and plasma separated and saved for neutrophil and albumin quantitation. The rats are killed and the skin surrounding the injection site (15 mm diameter) is punched out and weighed. The skin samples and a fixed volume of plasma (0.1 to 1.0 ml) is analyzed in a gamma-counter for ^125 I content. Skin samples from the contralateral side are processed and analyzed for myeloperoxidase activity (MPO) as a measure of neutrophil accumulation. As needed, samples are also processed for histological evaluation of the reacted sites.
Vascular Permeability (VP)
The calculation of the plasma protein exudation into skin is made by determining the radioactivity in the tissue and relating this to the level of radioactive albumin in the blood at the time of sacrifice. […] [formula]
Percent inhibition of the test compound at 3 mg was determined as follows: [formula] Myeloperoxidase (MPO)
MPO is located in the azurophil granules of polymorphonuclear leukocytes (PMN). Because of its abundance in these cells (5% dry weight), this enzyme is used as a marker for tissue neutrophil content. For tissue MPO content, the method of Bradley, et al., was used as described in J. Invest. Dermatol. (1982) 78: 206-209. Biopsies from each treatment group were placed in plastic tubes (15×100 mm) containing 10 ml of 0.5% hexadecyltrimethylammonium bromide (HTAB)in 0.05M potassium phosphate buffer pH 6.0. The tissue was then homogenized with a Brinkmann Polytron homogenizer (10s). […]

[3] = molecular target: T1, P-selectin (Homo sapiens, UniProt P16109); conditions: anionic polymers; literature; cited from earlier work
T1 sequence (P16109 42-830): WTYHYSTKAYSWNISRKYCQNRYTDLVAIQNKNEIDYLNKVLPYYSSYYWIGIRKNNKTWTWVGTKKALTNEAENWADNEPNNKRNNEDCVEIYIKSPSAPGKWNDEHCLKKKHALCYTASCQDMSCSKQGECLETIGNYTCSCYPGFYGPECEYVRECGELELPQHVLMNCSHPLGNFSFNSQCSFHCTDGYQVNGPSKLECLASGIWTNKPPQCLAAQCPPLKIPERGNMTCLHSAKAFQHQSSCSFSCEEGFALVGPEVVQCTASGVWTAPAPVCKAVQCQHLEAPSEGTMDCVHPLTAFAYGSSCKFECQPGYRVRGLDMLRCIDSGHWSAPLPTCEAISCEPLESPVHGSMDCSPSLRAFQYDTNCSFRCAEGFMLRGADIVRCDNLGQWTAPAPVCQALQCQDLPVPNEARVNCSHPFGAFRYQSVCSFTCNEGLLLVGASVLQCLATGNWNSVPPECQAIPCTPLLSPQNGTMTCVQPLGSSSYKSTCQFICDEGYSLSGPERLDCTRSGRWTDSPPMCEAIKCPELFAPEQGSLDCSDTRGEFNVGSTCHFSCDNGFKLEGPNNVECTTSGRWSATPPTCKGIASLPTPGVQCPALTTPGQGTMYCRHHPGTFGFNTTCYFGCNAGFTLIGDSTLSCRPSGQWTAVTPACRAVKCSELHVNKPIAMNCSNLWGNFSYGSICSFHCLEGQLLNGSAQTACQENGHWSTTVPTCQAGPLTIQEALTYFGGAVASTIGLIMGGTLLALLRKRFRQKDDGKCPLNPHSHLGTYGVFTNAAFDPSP

[4] = molecular target: T1, P-selectin; conditions: literature; cited from earlier work

CCCCCCCCCCCCC/C=C/[C@@H](OC(=O)c1ccccc1)[C@H](CO[C@H]1O[C@H](COC(=O)c2ccccc2)[C@H](OCC(=O)O)[C@H](OCC(=O)O)[C@H]1OC(=O)c1ccccc1)NC(=O)CCCCCCCCCCCCCCC [Example 10, (2S,3R,4E)-2-Hexadecanoylamino-3-benzoyloxy-1-[3,4-di-O-carboxy-methyl-2,6-di-O-benzoyl-α-D-galactopyranosyloxy]-4-octadecene]
pIC50 [1]: < 4.00 | RPA VP % Inhib. (vascular permeability) ([2]; 125I-BSA plasma extravasation into skin): 54% | RPA MPO % Inhib. (myeloperoxidase, neutrophil accumulation) ([2]; skin MPO activity): 65%

heparin
inhibition of P-selectin mediated adhesion (in words) [3]: shown to inhibit P-selectin mediated adhesion

dextran sulfate
inhibition of P-selectin mediated adhesion (in words) [3]: shown to inhibit P-selectin mediated adhesion

CC(=O)N[C@H]1C(O)O[C@H](CO)[C@@H](O[C@@H]2O[C@H](CO)[C@H](O)[C@H](O)[C@H]2O)[C@@H]1O[C@@H]1O[C@@H](C)[C@@H](O)[C@@H](O)[C@@H]1O (stereo partly shown) [Le^x]
binding to P-selectin (in words) [4]: shown to bind

fucoidan
inhibition of P-selectin mediated adhesion (in words) [3]: shown to inhibit P-selectin mediated adhesion
